IC50 data for 18 compounds are collected here from US8148391B2 (Cephalon, Inc., priority 2006, dated 2012).

Read-outs that look alike come from different tables or passages of the source.

Experiment [1] deals with T1, baculovirus-expressed ALK (Homo sapiens, UniProt Q9UM73).
T1 construct: host or cells: baculovirus expression system
The experiment is described as follows: ALK Kinase Assay (ELISA-type, time-resolved fluorescence). In kind it is biochemical. The method in brief:
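Wells were coated with phospholipase C-γ at 10 μg/mL in Tris-buffered saline. Adding 30 ng/ml enzyme started the reaction, which ran at 37° C for 15 minutes before Eu-N1 PT66 antibody detection. Percent inhibition versus log10 concentration gave IC50 by variable-slope fit.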

For experiment [2], the target named is T2, c-Met (cytoplasmic domain) (Homo sapiens, UniProt P08581).
T2 construct: 10 ng/mL c-Met (cytoplasmic domain, Invitrogen Corporation #PV3143); purchased Invitrogen Corporation PV3143
The experiment is described as follows: c-Met Kinase Assay (same methods as for ALK, with modifications). The format is biochemical. The method in brief: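 Steps: coat wells with PLC-γ (10 μg/mL, Tris-buffered saline); add 10 ng/mL c-Met cytoplasmic domain to initiate; incubate 15 min, 37° C; detect phosphoproduct via Eu-N1 PT66 antibody.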

The mark [3] stands for this setting: 1 μM ATP (Km level), read-out: ALK Activity (ALK Kinase Inhibition, IC50).
Setting [4] is: 1 μM ATP (Km level), read-out: cMet Activity (c-Met Kinase Inhibition, IC50).
Setting [5] is: ALK kinase inhibition, 1 μM ATP (Km level), read-out: ALK Activity.
Where [6] appears, read: c-Met kinase inhibition, 1 μM ATP (Km level), read-out: cMet Activity.
[7] abbreviates: 1 μM ATP (Km level), 30 ng/ml ALK, 37° C., 15 minutes, read-out: ALK Activity (ALK kinase inhibition, IC50 class).
The mark [8] stands for this setting: 1 μM ATP (Km level), 10 ng/mL c-Met, read-out: cMet Activity (c-Met kinase inhibition, IC50 class).
The mark [9] stands for this setting: ALK kinase inhibition, 1 μM ATP, read-out: ALK Activity.
The mark [10] stands for this setting: c-Met kinase inhibition, 1 μM ATP, read-out: cMet Activity.

T1 sequence (Q9UM73 19-1620): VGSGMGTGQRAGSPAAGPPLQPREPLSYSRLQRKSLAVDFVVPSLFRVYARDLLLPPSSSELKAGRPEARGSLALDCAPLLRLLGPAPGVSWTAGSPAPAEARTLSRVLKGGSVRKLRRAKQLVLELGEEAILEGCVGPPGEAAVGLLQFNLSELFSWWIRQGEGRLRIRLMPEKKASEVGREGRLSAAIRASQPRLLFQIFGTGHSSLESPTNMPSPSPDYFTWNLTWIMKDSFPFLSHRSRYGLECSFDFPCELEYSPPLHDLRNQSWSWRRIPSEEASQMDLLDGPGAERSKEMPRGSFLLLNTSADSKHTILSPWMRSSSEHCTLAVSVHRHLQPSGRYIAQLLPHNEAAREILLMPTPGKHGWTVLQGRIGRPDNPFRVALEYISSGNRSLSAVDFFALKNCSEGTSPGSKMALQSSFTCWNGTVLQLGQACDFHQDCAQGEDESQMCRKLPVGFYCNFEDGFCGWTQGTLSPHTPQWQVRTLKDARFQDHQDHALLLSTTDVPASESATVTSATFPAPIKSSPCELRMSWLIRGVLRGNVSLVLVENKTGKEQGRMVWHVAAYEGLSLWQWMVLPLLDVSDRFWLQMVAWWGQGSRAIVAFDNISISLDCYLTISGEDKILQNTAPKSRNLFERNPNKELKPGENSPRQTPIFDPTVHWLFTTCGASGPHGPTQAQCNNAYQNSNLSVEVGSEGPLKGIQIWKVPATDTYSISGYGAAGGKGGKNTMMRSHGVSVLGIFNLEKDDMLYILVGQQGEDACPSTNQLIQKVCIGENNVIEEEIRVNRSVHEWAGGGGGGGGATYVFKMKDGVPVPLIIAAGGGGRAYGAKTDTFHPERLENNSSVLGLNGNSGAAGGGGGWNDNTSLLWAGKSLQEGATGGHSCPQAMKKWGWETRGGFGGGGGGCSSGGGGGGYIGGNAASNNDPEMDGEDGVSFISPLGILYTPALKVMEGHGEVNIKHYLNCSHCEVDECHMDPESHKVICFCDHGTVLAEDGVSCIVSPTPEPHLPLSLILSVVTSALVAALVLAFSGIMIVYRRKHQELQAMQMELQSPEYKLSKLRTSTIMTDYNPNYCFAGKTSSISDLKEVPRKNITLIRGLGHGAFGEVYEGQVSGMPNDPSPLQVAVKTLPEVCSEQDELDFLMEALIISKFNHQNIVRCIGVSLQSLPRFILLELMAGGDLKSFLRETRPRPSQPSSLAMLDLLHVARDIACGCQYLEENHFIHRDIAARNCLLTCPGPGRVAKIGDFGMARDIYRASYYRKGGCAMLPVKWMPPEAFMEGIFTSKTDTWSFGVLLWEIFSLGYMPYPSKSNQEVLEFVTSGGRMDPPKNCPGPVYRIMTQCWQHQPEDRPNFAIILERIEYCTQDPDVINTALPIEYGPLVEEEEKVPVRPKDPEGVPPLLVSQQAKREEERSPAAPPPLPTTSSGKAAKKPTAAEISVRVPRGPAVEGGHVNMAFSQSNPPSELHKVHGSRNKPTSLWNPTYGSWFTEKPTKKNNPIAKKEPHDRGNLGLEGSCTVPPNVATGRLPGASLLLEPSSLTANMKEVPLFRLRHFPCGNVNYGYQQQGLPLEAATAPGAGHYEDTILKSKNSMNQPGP
T2 sequence (P08581 956-1390 limits assumed): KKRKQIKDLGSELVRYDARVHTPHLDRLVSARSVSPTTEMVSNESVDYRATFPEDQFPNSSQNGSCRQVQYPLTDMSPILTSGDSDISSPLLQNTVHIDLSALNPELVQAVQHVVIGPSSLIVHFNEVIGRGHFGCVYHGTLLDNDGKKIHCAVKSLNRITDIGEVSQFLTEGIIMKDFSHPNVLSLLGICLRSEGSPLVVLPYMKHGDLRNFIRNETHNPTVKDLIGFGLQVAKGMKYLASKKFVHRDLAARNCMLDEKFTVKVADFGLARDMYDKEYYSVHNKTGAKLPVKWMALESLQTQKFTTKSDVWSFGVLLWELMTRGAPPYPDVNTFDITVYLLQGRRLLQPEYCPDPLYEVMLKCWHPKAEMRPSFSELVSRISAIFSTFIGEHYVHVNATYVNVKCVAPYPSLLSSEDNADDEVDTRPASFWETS

`COc1c(Nc2ncc(Cl)c(Nc3ccccc3C(=O)OC(C)C)n2)ccc2c1CCCC(N1CCOCC1)C2` (stereo not drawn) [Example 948, 2-[5-Chloro-2-(1-methoxy-6-morpholin-4-yl-6,7,8,9-tetrahydro-5H-benzocyclohepten-2-ylamino)-pyrimidin-4-ylamino]-benzoic acid isopropyl ester]: the IC50 in experiment [1] (setting [3]) is 0.1 to 1 µM; in experiment [2] (setting [4]), greater than 10 µM.

Turning to `COc1cc2c(cc1Nc1ncc(Cl)c(Nc3ccc(N4CCN(C)CC4)cc3C)n1)CCN(CC(=O)N(C)C)CC2` [Example 802, 2-(7-{5-Chloro-4-[2-methyl-4-(4-methyl-piperazin-1-yl)-phenylamino]-pyrimidin-2-ylamino}-8-methoxy-1,2,4,5-tetrahydro-benzo[d]azepin-3-yl)-N,N-dimethyl-acetamide], the figures for the IC50 in experiment [1] (setting [3]) and in experiment [2] (setting [4]) were less than 0.1 µM and greater than 10 µM, respectively.

Consider `CCN1CCc2ccc(Nc3ncc(Cl)c(N[C@@H]4c5ccccc5C[C@@H]4O)n3)cc2CC1` [Example 235, (1R,2S)-1-[5-Chloro-2-(3-ethyl-2,3,4,5-tetrahydro-1H-benzo[d]azepin-7-ylamino)-pyrimidin-4-ylamino]-indan-2-ol], for which the IC50 in experiment [1] (setting [5]) was less than 0.1 µM; in experiment [2] (setting [6]), 1 to 10 µM.

`CN1CCN(C2CCc3ccc(Nc4ncc(Cl)c(N[C@H]5[C@@H](C(N)=O)[C@@H]6C=C[C@H]5C6)n4)cc3CC2)CC1` (stereo partly drawn) [Example 892, (1S,2S,3R,4R)-3-{5-Chloro-2-[7-(4-methyl-piperazin-1-yl)-6,7,8,9-tetrahydro-5H-benzocyclohepten-2-ylamino]-pyrimidin-4-ylamino}-bicyclo[2.2.1]hept-5-ene-2-carboxylic acid amide]: the values for the IC50 in experiment [1] (setting [3]) and in experiment [2] (setting [4]) were less than 0.1 µM and 1 to 10 µM, respectively.

On to `C#CCNC(=O)c1cccc(F)c1Nc1nc(Nc2ccc3c(c2)N(CC)C(=O)CCC3(C)C)ncc1Cl` [Example 1405, 2-[5-Chloro-2-(1-ethyl-5,5-dimethyl-2-oxo-2,3,4,5-tetrahydro-1H-benzo[b]azepin-8-ylamino)-pyrimidin-4-ylamino]-3-fluoro-N-prop-2-ynyl-benzamide], for which the IC50 is 0.1 to 1 µM in experiment [1] (setting [7]) and less than 0.1 µM in experiment [2] (setting [8]).

For `CNC(=O)c1cccc(F)c1Nc1nc(Nc2ccc3c(c2)CCOC(=O)N3C)ncc1Cl` [Example 1742, 3-Fluoro-2-[5-chloro-2-(5-methyl-6-oxo-5,6,8,9-tetrahydro-7-oxa-5-aza-benzocyclohepten-2-ylamino)-pyrimidin-4-ylamino]-N-methyl-benzamide], the IC50 in experiment [1] (setting [9]) and in experiment [2] (setting [10]) was less than 0.1 µM each time.

With `COCCOc1ccc(Nc2nc(Nc3cc4c(cc3OC)CCN(CC(=O)N(C)C)CC4)ncc2Cl)c(S(=O)(=O)C(C)C)c1` [Example 1189, 2-(7-{5-Chloro-4-[4-(2-methoxy-ethoxy)-2-(propane-2-sulfonyl)-phenylamino]-pyrimidin-2-ylamino}-8-methoxy-1,2,4,5-tetrahydro-benzo[d]azepin-3-yl)-N,N-dimethyl-acetamide], the IC50 was less than 0.1 µM in experiment [1] (setting [7]) and greater than 10 µM in experiment [2] (setting [8]).

In the case of `COc1cc2c(cc1Nc1ncc(Cl)c(Nc3ccccc3S(=O)(=O)N3CCC(O)C3)n1)CCNC(=O)C2` (stereo not drawn) [Example 1193, 7-{5-Chloro-4-[2-(3-hydroxy-pyrrolidine-1-sulfonyl)-phenylamino]-pyrimidin-2-ylamino}-8-methoxy-1,3,4,5-tetrahydro-benzo[d]azepin-2-one], the values for the IC50 in experiment [1] (setting [7]) and in experiment [2] (setting [8]) were less than 0.1 µM and 0.1 to 1 µM, respectively.

Take `COc1ccc(Nc2ncc(Cl)c(N[C@H]3[C@@H](C(N)=O)[C@@H]4C=C[C@H]3C4)n2)c2c1CCCC(N1CCOCC1)C2` (single isomer, unassigned) [Example 942]: the IC50 in experiment [1] (setting [3]) was 1 to 10 µM; in experiment [2] (setting [4]), greater than 10 µM.

`Cc1cccc(C(N)=O)c1Nc1nc(Nc2ccc3c(c2)N(C(C)C)C(=O)CCC3)ncc1Cl` [Example 1475, 2-[5-Chloro-2-(1-isopropyl-2-oxo-2,3,4,5-tetrahydro-1H-benzo[b]azepin-8-ylamino)-pyrimidin-4-ylamino]-3-methyl-benzamide]: the IC50 is 0.1 to 1 µM in experiment [1] (setting [9]) and greater than 10 µM in experiment [2] (setting [10]).

With `COc1cc2c(cc1Nc1ncc(F)c(NC3C4C=CC(C4)C3C(N)=O)n1)CCN(CC(F)F)CC2` (stereo not drawn) [Example 769, (2-exo,3-exo)-3-{2-[3-(2,2-Difluoro-ethyl)-8-methoxy-2,3,4,5-tetrahydro-1H-benzo[d]azepin-7-ylamino]-5-fluoro-pyrimidin-4-ylamino}-bicyclo[2.2.1]hept-5-ene-2-carboxylic acid amide], the IC50 was 0.1 to 1 µM in experiment [1] (setting [3]) and greater than 10 µM in experiment [2] (setting [4]).

On to `CNC(=O)c1ccccc1Nc1nc(Nc2ccc3c(c2Cl)C2CCC(C3)N2)ncc1Cl` (stereo not drawn) [Example 81, 2-[5-Chloro-2-(3-chloro-12-aza-tricyclo[7.2.1.0*2,7*]dodeca-2(7),3,5-trien-4-ylamino)-pyrimidin-4-ylamino]-N-methyl-benzamide], for which the IC50 in experiment [1] (setting [5]) was less than 0.1 µM; in experiment [2] (setting [6]), 0.1 to 1 µM.

`COCCN1CCc2ccc(Nc3ncc(Cl)c(Nc4c(F)cc(F)cc4N4CCOCC4)n3)cc2CC1` [Example 1287, 5-Chloro-N(4)-(2,4-difluoro-6-morpholin-4-yl-phenyl)-N(2)-[3-(2-methoxy-ethyl)-2,3,4,5-tetrahydro-1H-3-benzazepin-7-yl]-pyrimidine-2,4-diamine]: the IC50 in experiment [1] (setting [7]) lay within 0.1 to 1 µM; in experiment [2] (setting [8]) it was 1 to 10 µM.

In the case of `COc1cc2c(cc1Nc1ncc(Cl)c(Nc3ccc(N(C)C)cc3S(=O)(=O)N(C)C)n1)CCN(CC(=O)N(C)C)CC2` [Example 833, 2-{7-[5-Chloro-4-(4-dimethylamino-2-dimethylsulfamoyl-phenylamino)-pyrimidin-2-ylamino]-8-methoxy-1,2,4,5-tetrahydro-benzo[d]azepin-3-yl}-N,N-dimethyl-acetamide], the IC50 in experiment [1] (setting [3]) was less than 0.1 µM; in experiment [2] (setting [4]), greater than 10 µM.

As to “(1S,2S,3R,4R)-3-[2-(3-Carbamoylmethyl-8-methoxy-2,3,4,5-tetrahydro-1H-benzo[d]azepin-7-ylamino)-5-chloro-pyrimidin-4-ylamino]-bicyclo[2.2.1]hept-5-ene-2-carboxylic acid amide [Example 813]”, the IC50 is less than 0.1 µM in experiment [1] (setting [3]) and greater than 10 µM in experiment [2] (setting [4]).

In the case of `CN1C(=O)CCC(C)(C)c2cc(Nc3ncc(Cl)c(Nc4ccccc4S(C)(=O)=O)n3)ccc21` [Example 1250, 7-[5-Chloro-4-(2-methanesulfonyl-phenylamino)-pyrimidin-2-ylamino]-1,5,5-trimethyl-1,3,4,5-tetrahydro-1-benzazepin-2-one], the figures for the IC50 in experiment [1] (setting [7]) and in experiment [2] (setting [8]) were less than 0.1 µM and 0.1 to 1 µM, respectively.

In the case of `COCCN1CCc2ccc(Nc3ncc(Cl)c(N[C@H]4CC[C@@H](N(CC#N)S(C)(=O)=O)CC4)n3)cc2CC1` [Example 1384, cis-N-(4-{5-Chloro-2-[3-(2-methoxy-ethyl)-2,3,4,5-tetrahydro-1H-benzo[d]azepin-7-ylamino]-pyrimidin-4-ylamino}-cyclohexyl)-N-cyanomethyl-methanesulfonamide], the IC50 was 0.1 to 1 µM in experiment [1] (setting [7]) and 1 to 10 µM in experiment [2] (setting [8]).

Regarding `COCCN1CCc2ccc(Nc3ncc(Cl)c(Nc4ccc5[nH]c(C(F)(F)F)nc5c4)n3)cc2CC1` [Example 1015, 5-Chloro-N*2*-[3-(2-methoxy-ethyl)-2,3,4,5-tetrahydro-1H-benzo[d]azepin-7-yl]-N*4*-(2-trifluoromethyl-1H-benzoimidazol-5-yl)-pyrimidine-2,4-diamine], the IC50 in experiment [1] (setting [7]) was in the range of 0.1 to 1 µM; in experiment [2] (setting [8]) it was 1 to 10 µM.
